The values below come from patent publication US20100113612A1, “NOVEL USE OF HYDROXYTYROSOL AND OLIVE EXTRACTS/CONCENTRATE CONTAINING IT” (priority 2007, published 2010).

In the test the test system is Drosophila melanogaster (Oregon wild strain). The experiment in a line: Life extending experiments with Drosophila (lifespan study). Type of test: in vivo. The conditions noted are these: for Mean Lifespan: from age of 15 days on. How it is done:
Drosophila melanogaster (Oregon wild strain) were used for lifespan study. Flies were reared in a light/dark cycle of 12:12 hours at a temperature of 25° C. and 65% relative humidity. Drosophila were fed with a standard medium consisting of 170 g of corn flour, 15 g of agar, 15 g of yeast, 10 ml of 100% propionic acid, 130 g of sucrose, and 2000 ml of water.
One-day-old Drosophila were transferred to plastic vials (25×100 mm) containing 2 ml of the diet medium, which was replaced every 3 days. 10 flies from each gender were kept in one vial. Hydroxytyrosol was provided in the diet to Drosophila from age of 15 days on. The Drosophilae were counted every 3 days until all flies died. Survivals were calculated at the end of the experiments after correcting total loss incurred from handling (Phillips J P, Campbell S D, Michaud D, Charbonneau M, Hilliker A J, Proc Natl Acad Sci USA. 1989, 86(8), 2761-2765: “Null mutation of copper/zinc superoxide dismutase in Drosophila confers hypersensitivity to paraquat and reduced longevity.”). The mean lifespan was calculated according to the method described by Cui X, Dai X G, Li W B, Zhang B L, Fang Y Z in Am. J. Chin. Med. 1999, 27(3-4), 407-413: “Effects of lu-duo-wei capsule on prolonging life span of housefly and Drosophila melanogaster.”

Take `OCCc1ccc(O)c(O)c1` [Hydroxytyrosol, 3,4-dihydroxyphenylethanol]: the “% Increase of lifespan compared to control” value by setting is: (1 mg/100 g in the diet) 8.23%; (5 mg/100 g in the diet) 11.55%; (10 mg/100 g in the diet) 3.89%; (20 mg/100 g in the diet) 6.97%; (50 mg/100 g in the diet) 4.02%. For the same compound, the “Mean Lifespan” value by setting is: (1 mg/100 g in the diet) 75.14 days; (5 mg/100 g in the diet) 77.44 days; (10 mg/100 g in the diet) 72.12 days; (20 mg/100 g in the diet) 74.26 days; (50 mg/100 g in the diet) 72.21 days. For the same compound, the “lifespan extension (best effect)” value (male Drosophila, 5 mg/100 g diet) came to 11.5%.
